{
  "source": "patent US20050196385A1",
  "about": "“Methods for producing gamma delta t cells” (Innate Pharama, priority 2002, published 2005)",
  "test_system": "gamma 9 delta 2 T cells",
  "assay": "TNF release test after BrHPP stimulation",
  "assay_type": "cell-based, human",
  "settings": "for TNF alpha production (pg/ml) on 25,000 cells: 3 μM BrHPP, 24 hours, day 21; for Pg/ml of alpha TNF produced by 25 000 cells: cells formulated in HSA 4%, triplicate means",
  "procedure": "Different tests were carried out on the cells obtained to evaluate their functional activity. In particular, said tests concerned the cytotoxic activity of the cells and their production of TNF. • Cytotoxicity test. For this test, the target cells were isotopically labelled with ^51Cr (10 μl of ^51Cr/1 million target cells in 24-well plates), then incubated for 1 hour at 37° C. The cells were distributed (in duplicate) at a rate of 3000 cells per well in RPMI/10% FCS (50 μl), and spontaneous and maximum release of ^51Cr were determined. Effector cells (gamma delta T cells of the invention) were then added (50 μl in RPMI/10% FCS) to each target, at the following effector/target (E/T) ratios: 30/1, 3/1, 0.3/1, and incubated for 3 to 4 hours at 37° C. Cytotoxic activity (lysis of target cells) was determined by measuring the released radioactivity on 25 μl of supernatant in a β plate counter. • TNF release test. Cells were washed twice in RPMI then cultured in 96-well plates in RPMI/10% FCS in the presence of 3 μM BrHPP for 24 hours. TNF was assayed in the supernatant using the Beckman Coulter Kit Immunotech, ref. IM 11121. IC—Results Choice of Medium\nThe formulated cell product was tested for functionality by the TNF release test at different time points to evaluate its stability.",
  "data": [
    {"compound": "CC(O)(CBr)CCOP(=O)(O)OP(=O)(O)O", "note": "(stereo not shown) [BrHPP, 3-(bromomethyl)-3-butanol-1-yl-diphosphate]", "values": [
      {"measurement": "TNF alpha production (pg/ml) on 25,000 cells", "setting": "cells of donor D623 from fresh MNC", "result": 1332.7, "unit": "pg/mL"},
      {"measurement": "TNF alpha production (pg/ml) on 25,000 cells", "setting": "cells of donor D623 from frozen MNC", "result": 1442.36, "unit": "pg/mL"},
      {"measurement": "TNF alpha production (pg/ml) on 25,000 cells", "setting": "cells of donor D711 from fresh MNC", "result": 903.3, "unit": "pg/mL"},
      {"measurement": "TNF alpha production (pg/ml) on 25,000 cells", "setting": "cells of donor D711 from frozen MNC", "result": 1336.16, "unit": "pg/mL"},
      {"measurement": "TNF alpha production (pg/ml) on 25,000 cells", "setting": "cells of donor D762 from fresh MNC", "result": 782.08, "unit": "pg/mL"},
      {"measurement": "TNF alpha production (pg/ml) on 25,000 cells", "setting": "cells of donor D762 from frozen MNC", "result": 973.7, "unit": "pg/mL"},
      {"measurement": "Pg/ml of alpha TNF produced by 25 000 cells", "setting": "T = 2 h after formulation", "result": 381.358, "unit": "pg/mL"},
      {"measurement": "Pg/ml of alpha TNF produced by 25 000 cells", "setting": "T = 4 h after formulation", "result": 359.624, "unit": "pg/mL"},
      {"measurement": "Pg/ml of alpha TNF produced by 25 000 cells", "setting": "T = 8 h after formulation", "result": 327.31, "unit": "pg/mL"},
      {"measurement": "Pg/ml of alpha TNF produced by 25 000 cells", "setting": "T = 22 h after formulation", "result": 127.56, "unit": "pg/mL"}
    ]}
  ]
}
